IC50, solubility in PO4 buffer and solubility data for 23 compounds are collected here from patent publication US9234000B2, “Benzylamine derivatives as inhibitors of plasma kallikrein” (KalVista Pharmaceuticals Limited, priority 2011, dated 2016).

In brackets after ≈: the same amount, converted by molar mass. Where only a bound is given, the exact number is not on record here.

One data set addresses Human plasma kallikrein (Homo sapiens (Human), UniProt P03952). The experiment in a line: Determination of the IC50 for plasma kallikrein. It counts as biochemical. The conditions noted are these: fluorogenic substrate H-DPro-Phe-Arg-AFC, 37° C., read-out: IC50 (human PKal). The procedure, abridged:
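Human plasma kallikrein incubated at 37° C with fluorogenic substrate H-DPro-Phe-Arg-AFC and varying compound concentrations. Initial reaction rate followed by absorbance change at 410 nm to give residual activity and IC50.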

Another data set can be described thus: physchem. The conditions noted are these: for solubility in PO4 buffer: pH 7. As to the method: Determination of the Kinetic Solubility in Phosphate Buffer
After shaking for approximately 30 seconds the reduction in light transmission of these samples, at 650 nm, was measured (Molecular Devices Spectromax UV/visible spectrophotometer). A second measurement was taken at approximately 30 seconds later.

The target in the next data set is Human KLK1 (Homo sapiens (Human), UniProt P06870). Nature of the data set: Determination of the IC50 for KLK1. The conditions noted are these: Human KLK1, 37° C., substrate H-DVal-Leu-Arg-AFC; Table 12. It is filed as biochemical. The procedure, abridged:
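Human KLK1 incubated at 37° C with fluorogenic substrate H-DVal-Leu-Arg-AFC and a range of test compound concentrations. Residual activity taken as initial reaction rate from absorbance change at 410 nm; IC50 derived from these rates.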

Chain of Human KLK1 (P06870 25-262): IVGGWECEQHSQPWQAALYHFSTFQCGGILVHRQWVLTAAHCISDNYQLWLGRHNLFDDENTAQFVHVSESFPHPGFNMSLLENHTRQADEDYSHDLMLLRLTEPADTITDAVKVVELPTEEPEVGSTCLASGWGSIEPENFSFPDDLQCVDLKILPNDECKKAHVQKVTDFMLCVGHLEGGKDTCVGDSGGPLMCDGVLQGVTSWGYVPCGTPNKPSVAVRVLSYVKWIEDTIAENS
Chain of Human plasma kallikrein (P03952 391-638): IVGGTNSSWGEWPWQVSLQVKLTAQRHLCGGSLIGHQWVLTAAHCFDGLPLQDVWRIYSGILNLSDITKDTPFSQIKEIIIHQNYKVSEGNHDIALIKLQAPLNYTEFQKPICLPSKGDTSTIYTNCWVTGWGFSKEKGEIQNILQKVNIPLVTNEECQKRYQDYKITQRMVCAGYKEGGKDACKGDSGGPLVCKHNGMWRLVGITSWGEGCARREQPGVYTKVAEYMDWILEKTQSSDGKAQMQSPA
Chain of Human plasma kallikrein (P03952 20-390 partner): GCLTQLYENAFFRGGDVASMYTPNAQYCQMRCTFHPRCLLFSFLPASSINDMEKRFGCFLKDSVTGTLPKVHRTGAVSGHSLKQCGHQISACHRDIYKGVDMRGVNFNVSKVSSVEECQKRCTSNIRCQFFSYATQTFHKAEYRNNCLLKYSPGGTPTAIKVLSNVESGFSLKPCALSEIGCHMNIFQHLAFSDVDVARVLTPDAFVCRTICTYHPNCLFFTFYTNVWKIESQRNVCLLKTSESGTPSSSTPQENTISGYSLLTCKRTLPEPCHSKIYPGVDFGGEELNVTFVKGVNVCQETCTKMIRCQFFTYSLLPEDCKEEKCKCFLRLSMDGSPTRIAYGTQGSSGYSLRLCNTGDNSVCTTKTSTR

For `CS(=O)(=O)N[C@H](CC1CCCCC1)C(=O)N[C@@H](Cc1ccccc1)C(=O)NCc1ccc(CN)cc1` [Example 11, (R)-N-[(S)-1-(4-Aminomethyl-benzylcarbamoyl)-2-phenyl-ethyl]-3-cyclohexyl-2-methanesulfonylamino-propionamide], the IC50 on Human plasma kallikrein turned out to be 1700 nM. In addition, the solubility in PO4 buffer in the data set “physchem” was above 235 µM.

`CN[C@H](CC1CCCCC1)C(=O)N[C@@H](Cc1ccccc1)C(=O)NCc1ccc(CN)c(F)c1` [Example 40, (R)-N-[(S)-1-(4-Aminomethyl-3-fluoro-benzylcarbamoyl)-2-phenyl-ethyl]-3-cyclohexyl-2-methylamino-propionamide]: the IC50 is 1800 nM at Human plasma kallikrein and above 10000 nM on Human KLK1. Besides, the solubility in PO4 buffer in the data set “physchem” was above 235 µM.

Turning to `CCOc1ccc(C[C@@H](NC(=O)CC)C(=O)N(C)[C@@H](Cc2ccccc2)C(=O)NCc2ccc(CN)cc2)cc1` [Example 26, (S)-N-(4-Aminomethyl-benzyl)-2-{[(R)-3-(4-ethoxy-phenyl)-2-propionylamino-propionyl]-methyl-amino}-3-phenyl-propionamide], the IC50 at Human plasma kallikrein is 81 nM; against Human KLK1, above 10000 nM. The compound also registered a solubility in PO4 buffer in “physchem” above 235 µM.

Regarding `CCOc1ccc(C[C@@H](N)C(=O)N(C)[C@@H](Cc2ccccc2)C(=O)NCc2ccc(CN)cc2)cc1` [Example 25, (R)-2-Amino-N-[(S)-1-(4-aminomethyl-benzylcarbamoyl)-2-phenyl-ethyl]-3-(4-ethoxy-phenyl)-N-methyl-propionamide], the IC50 on Human plasma kallikrein is 340 nM; against Human KLK1, 6300 nM. In addition, in the data set “physchem”, the solubility in PO4 buffer is above 235 µM.

`CCOc1ccc(C[C@@H](NC(=O)CC)C(=O)N(C)[C@@H](Cc2ccccc2)C(=O)NCc2ccc(CN)c(F)c2)cc1` [Example 32, (S)-N-(4-Aminomethyl-3-fluoro-benzyl)-2-{[(R)-3-(4-ethoxy-phenyl)-2-propionylamino-propionyl]-methyl-amino}-3-phenyl-propionamide]: the figures for the IC50 at Human plasma kallikrein and against Human KLK1 were 200 nM and above 10000 nM, respectively. Further, the solubility in PO4 buffer in the data set “physchem” is above 235 µM.

Turning to `NCc1ccc(CNC(=O)[C@H](Cc2ccc(Cl)c(Cl)c2)NC(=O)[C@H](N)CC2CCCCC2)cc1` [Example 20, (R)-2-Amino-N-[(S)-1-(4-aminomethyl-benzylcarbamoyl)-2-(3,4-dichloro-phenyl)-ethyl]-3-cyclohexyl-propionamide], the figures for the IC50 on Human plasma kallikrein and on Human KLK1 were 730 nM and 3700 nM, respectively. This compound also showed a solubility in PO4 buffer in the data set “physchem” above 235 µM.

On to `CCOc1ccc(C[C@@H](N)C(=O)N[C@@H](Cc2ccccc2)C(=O)NCc2ccc(CN)c(F)c2)cc1` [Example 6, (R)-2-Amino-N-[(S)-1-(4-aminomethyl-3-fluoro-benzylcarbamoyl)-2-phenyl-ethyl]-3-(4-ethoxy-phenyl)-propionamide], for which the half-maximal inhibitory concentration (IC50) is 1000 nM on Human plasma kallikrein and above 1000 nM on Human KLK1. In “physchem”, this compound showed a solubility in PO4 buffer above 235 µM.

Consider `CCOc1ccc(C[C@@H](N)C(=O)N[C@@H](Cc2ccc(Cl)c(Cl)c2)C(=O)NCc2ccc(CN)cc2)cc1` [Example 14, (R)-2-Amino-N-[(S)-1-(4-aminomethyl-benzylcarbamoyl)-2-(3,4-dichloro-phenyl)-ethyl]-3-(4-ethoxy-phenyl)-propionamide], for which the IC50 on Human plasma kallikrein is 400 nM; against Human KLK1, 3700 nM. Besides, the solubility in PO4 buffer in the data set “physchem” was above 235 µM.

`CCOc1ccc(C[C@@H](NC(C)=O)C(=O)N(C)[C@@H](Cc2ccccc2)C(=O)NCc2ccc(CN)cc2)cc1` [Example 39, (R)-2-Acetylamino-N-[(S)-1-(4-aminomethyl-benzylcarbamoyl)-2-phenyl-ethyl]-3-(4-ethoxy-phenyl)-N-methyl-propionamide]: the half-maximal inhibitory concentration (IC50) is 310 nM on Human plasma kallikrein and above 10000 nM against Human KLK1. Further, the solubility in PO4 buffer in “physchem” was above 235 µM.

For `CCOc1ccc(C[C@@H](NS(=O)(=O)c2ccccc2)C(=O)N[C@@H](Cc2ccccc2)C(=O)NCc2ccc(CN)cc2)cc1` [Example 15, (R)-N-[(S)-1-(4-Aminomethyl-benzylcarbamoyl)-2-phenyl-ethyl]-2-benzenesulfonylamino-3-(4-ethoxy-phenyl)-propionamide], the IC50 was found to be 470 nM on Human plasma kallikrein and 2200 nM against Human KLK1. In the data set “physchem”, this compound yielded a solubility in PO4 buffer above 235 µM.

`CN(Cc1ccc(CN)cc1)C(=O)[C@H](Cc1ccccc1)NC(=O)[C@@H](CC1CCCCC1)NCC(=O)O` [Example 36, ((R)-1-{(S)-1-[(4-Aminomethyl-benzyl)-methyl-carbamoyl]-2-phenyl-ethylcarbamoyl}-2-cyclohexyl-ethylamino)-acetic acid]: the half-maximal inhibitory concentration (IC50) is 8200 nM on Human plasma kallikrein and above 10000 nM against Human KLK1. Further, the solubility in PO4 buffer in “physchem” is above 235 µM.

For `CCOc1ccc(C[C@@H](NC(=O)CC)C(=O)N2CC[C@H](c3ccccc3)[C@H]2C(=O)NCc2ccc(CN)cc2)cc1` [Example 67, (2S,3R)-1-[(R)-3-(4-Ethoxy-phenyl)-2-propionylamino-propionyl]-3-pheny-pyrrolidine-2-carboxylic acid 4-aminomethyl-benzylamide], the IC50 on Human plasma kallikrein was 1600 nM; against Human KLK1, above 10000 nM. In “physchem”, the solubility in PO4 buffer was above 235 µM.

As for `NCc1ccc(CNC(=O)[C@H](Cc2ccc(Cl)c(Cl)c2)NC(=O)[C@H](N)Cc2ccc(C(F)(F)F)cc2)cc1` [Example 18, (R)-2-Amino-N-[(S)-1-(4-aminomethyl-benzylcarbamoyl)-2-(3,4-dichloro-phenyl)-ethyl]-3-(4-trifluoromethyl-phenyl)-propionamide], the results for the IC50 on Human plasma kallikrein and on Human KLK1 were 8800 nM and 1600 nM, respectively. Also, the solubility in PO4 buffer in “physchem” is above 235 µM.

For `CCC(=O)N[C@H](CC1CCCCC1)C(=O)N[C@@H](Cc1ccccc1)C(=O)NCc1ccc(CN)cc1` [Example 10, (S)-N-(4-Aminomethyl-benzyl)-2-((R)-3-cyclohexyl-2-propionylamino-propionylamino)-3-phenyl-propionamide], the IC50 at Human plasma kallikrein amounted to 7200 nM. Moreover, the solubility in PO4 buffer in the data set “physchem” is above 235 µM.

As for `CCOc1ccc(C[C@@H](NC)C(=O)N[C@@H](Cc2ccccc2)C(=O)NCc2ccc(CN)cc2)cc1` [Example 27, (R)-N-[(S)-1-(4-Aminomethyl-benzylcarbamoyl)-2-phenyl-ethyl]-3-(4-ethoxy-phenyl)-2-methylamino-propionamide], the IC50 at Human plasma kallikrein came out at 1300 nM; at Human KLK1, 4000 nM. Further, the solubility in PO4 buffer in the data set “physchem” was above 235 µM.

On to `CCOc1ccc(C[C@@H](NC(=O)CC)C(=O)N[C@@H](Cc2ccccc2)C(=O)NCc2ccc(CN)cc2Cl)cc1` [Example 12, (S)-N-(4-Aminomethyl-2-chloro-benzyl)-2-[(R)-3-(4-ethoxy-phenyl)-2-propionylamino-propionylamino]-3-phenyl-propionamide], for which the IC50 on Human plasma kallikrein was found to be 290 nM. The compound further displayed a solubility in PO4 buffer in “physchem” above 235 µM.

`CCCN(C)[C@H](CC1CCCCC1)C(=O)N[C@@H](Cc1ccccc1)C(=O)NCc1ccc(CN)cc1` [Example 45, (R)-N-[(S)-1-(4-Aminomethyl-benzylcarbamoyl)-2-phenyl-ethyl]-3-cyclohexyl-2-(methyl-propyl-amino)-propionamide]: the IC50 on Human plasma kallikrein is 790 nM; at Human KLK1 it was above 10000 nM. Moreover, the solubility in PO4 buffer in “physchem” was above 235 µM.

For `CN[C@H](CC1CCCCC1)C(=O)N[C@@H](Cc1ccccc1)C(=O)NCc1ccc(CN)cc1` [Example 33, (R)-N-[(S)-1-(4-Aminomethyl-benzylcarbamoyl)-2-phenyl-ethyl]-3-cyclohexyl-2-methylamino-propionamide], the values for the IC50 at Human plasma kallikrein and at Human KLK1 were 1100 nM and above 10000 nM, respectively. Also, the solubility in PO4 buffer in “physchem” was above 235 µM.

Regarding `CCOc1ccc(C[C@@H](NC(=O)c2ccc(-c3ccccc3)cc2)C(=O)N[C@@H](Cc2ccccc2)C(=O)NCc2ccc(CN)cc2)cc1` [Example 57, Biphenyl-4-carboxylic acid [(R)-1-[(S)-1-(4-aminomethyl-benzylcarbamoyl)-2-phenyl-ethylcarbamoyl]-2-(4-ethoxy-phenyl)-ethyl]-amide], the IC50 on Human plasma kallikrein was 10000 nM. Moreover, the solubility in the data set “physchem” (pH 7, aqueous buffer, kinetic from dmso stock) was 36 µM (≈ 23.6 µg/mL).

Regarding `CCOc1ccc(C[C@@H](NC(=O)CC)C(=O)N[C@H](C(=O)NCc2ccc(CN)cc2)[C@@H](O)c2ccccc2)cc1` [Example 63, (2S,3S)-N-(4-Aminomethyl-benzyl)-2-[(R)-3-(4-ethoxy-phenyl)-2-propionylamino-propionylamino]-3-hydroxy-3-phenyl-propionamide], at Human plasma kallikrein, the IC50 is 52 nM. The compound further yielded a solubility in PO4 buffer in the data set “physchem” above 235 µM.

Turning to `CCOc1ccc(C[C@@H](NS(C)(=O)=O)C(=O)N[C@@H](Cc2ccccc2)C(=O)NCc2ccc(CN)cc2)cc1` [Example 2, (R)—N—[(S)-1-(4-Aminomethyl-benzylcarbamoyl)-2-phenyl-ethyl]-3-(4-ethoxy-phenyl)-2-methanesulfonylamino-propionamide], at Human plasma kallikrein, the IC50 was 820 nM. This compound yielded a solubility in PO4 buffer in “physchem” above 235 µM.

`CCOc1ccc(C[C@@H](N)C(=O)N[C@H](C(=O)NCc2ccc(CN)cc2)[C@@H](O)c2ccccc2)cc1` [Example 61, (R)-2-Amino-N-[(1S,2S)-1-(4-aminomethyl-benzylcarbamoyl)-2-hydroxy-2-phenyl-ethyl]-3-(4-ethoxy-phenyl)-propionamide]: the IC50 at Human plasma kallikrein was 220 nM. Also, in the data set “physchem”, the solubility in PO4 buffer was above 235 µM.

Consider `CCOc1ccc(C[C@@H](NC(=O)CC)C(=O)N(CC)[C@H](Cc2ccccc2)C(=O)NCc2ccc(CN)cc2)cc1` [Example 64, (R)-N-(4-Aminomethyl-benzyl)-2-{[(R)-3-(4-ethoxy-phenyl)-2-propionylamino-propionyl]-ethyl-amino}-3-phenyl-propionamide], for which the IC50 at Human plasma kallikrein was found to be 3400 nM. For the same compound, the solubility in PO4 buffer in “physchem” is above 235 µM.

By IC50 is commonly meant the concentration needed to halve the response being measured. By solubility is commonly meant the concentration that dissolves in the medium under given conditions. A lower solubility goes with little dissolved substance.
